We go through 17 compounds from patent publication US20240158370A1, “CK1 alpha AND DUAL CK1 alpha / GSPT1 DEGRADING COMPOUNDS” (Innovo Therapeutics, Inc., priority 2022, published 2024).

For orientation: DC50 means the concentration giving 50% degradation. A lower DC50 goes with a more potent degrader. A word on the EC50: it is the midpoint of the concentration-response curve. A higher EC50 goes with weaker potency.

Holding throughout (format): cell-based
In one test the target is T1, CK1α (Homo sapiens, UniProt P48729+Q96SW2).
T1 construct: CSNK1A1-HiBit KI HEK293(LgBit) Cells; host or cells: HEK293(LgBit) knock-in cells
The test can be described thus: HiBiT degradation assay, CK1α, Procedure A. Summed up:
(§1)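 Luminescence from HiBiT lytic detection reports remaining tagged protein after cells sit six hours at 37° C with compound across ten concentrations (10 μM down to 0.005 μM, 0.1% DMSO). A 4-parameter curve fit gives DC50 and Ymin.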
In general terms: HiBiT is a short tag that completes a luciferase, so light tracks the accessible tagged protein.

A further test deals with Z-138 cells. In words: Z-138 Proliferation Assay (Cell Titer-Glo). The note with it: 72 hours; for Ymin (%): % remaining (percent of DMSO control); for EC50: Homo sapiens, Cell Titer-Glo, 4-parameter curve fit. Summed up:
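Z-138 cells (4,000 cells/well, IMDM + 10% FBS) exposed 72 h to 10-point 1:2 compound dilutions from 10,000 nM top, 0.1% DMSO. Viability read by CellTiter-Glo luminescence; EC50 from 4-parameter fit of percent of DMSO control.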

For test [1], the target named is T2, GSPT1 (Homo sapiens, UniProt P15170+Q96SW2). In words: HiBiT degradation assay, GSPT1, Procedure B (Molt 4_hGSPT1_HiBIT cells). Details: Molt 4_hGSPT1_HiBIT N-terminus tagged cells were generated using CRISPR technology; endogenous in cells; host or cells: Molt 4 cells, CRISPR-edited. The note with it: six hours. Summed up: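 CRISPR N-terminal HiBiT-tagged Molt 4 cells at 1×10^6 cells/ml were treated 6 h at 37° C with compounds (10-point, 10 μM to 0.005 μM, 0.1% DMSO). Remaining HiBiT-GSPT1 was read by lytic luminescence; DC50 and Ymin (% remaining) from a 4-parameter fit.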

In test [2] the target is T2, GSPT1. The test can be described thus: HiBiT degradation assay, GSPT1, Procedure A. The arrangement: HiBit-GSPT1 KI HEK293(LgBit) Cells; host or cells: HEK293(LgBit) knock-in cells. In short, it runs like this:
as §1

T1 sequence (P48729 whole entry): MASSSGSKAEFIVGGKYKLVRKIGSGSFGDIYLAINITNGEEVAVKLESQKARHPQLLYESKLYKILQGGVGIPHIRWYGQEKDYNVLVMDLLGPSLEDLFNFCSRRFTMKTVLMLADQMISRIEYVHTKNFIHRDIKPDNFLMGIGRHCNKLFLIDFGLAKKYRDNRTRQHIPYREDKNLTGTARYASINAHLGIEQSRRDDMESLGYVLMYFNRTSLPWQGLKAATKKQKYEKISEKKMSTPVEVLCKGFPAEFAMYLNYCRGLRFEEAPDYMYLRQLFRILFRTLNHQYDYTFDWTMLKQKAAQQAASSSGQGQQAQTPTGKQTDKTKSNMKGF
T1 sequence (Q96SW2 whole entry): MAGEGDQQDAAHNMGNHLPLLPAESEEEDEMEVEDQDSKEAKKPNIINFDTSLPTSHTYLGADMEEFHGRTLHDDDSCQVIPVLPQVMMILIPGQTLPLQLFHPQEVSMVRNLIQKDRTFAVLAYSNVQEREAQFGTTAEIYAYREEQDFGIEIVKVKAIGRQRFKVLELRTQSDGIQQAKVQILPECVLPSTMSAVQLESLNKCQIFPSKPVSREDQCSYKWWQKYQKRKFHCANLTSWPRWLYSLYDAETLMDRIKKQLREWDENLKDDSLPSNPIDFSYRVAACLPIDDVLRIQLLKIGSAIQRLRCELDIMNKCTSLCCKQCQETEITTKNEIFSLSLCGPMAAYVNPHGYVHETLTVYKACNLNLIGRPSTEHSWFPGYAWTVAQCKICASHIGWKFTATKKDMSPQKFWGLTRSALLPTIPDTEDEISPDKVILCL
T1 sequence (Q16531 whole entry partner): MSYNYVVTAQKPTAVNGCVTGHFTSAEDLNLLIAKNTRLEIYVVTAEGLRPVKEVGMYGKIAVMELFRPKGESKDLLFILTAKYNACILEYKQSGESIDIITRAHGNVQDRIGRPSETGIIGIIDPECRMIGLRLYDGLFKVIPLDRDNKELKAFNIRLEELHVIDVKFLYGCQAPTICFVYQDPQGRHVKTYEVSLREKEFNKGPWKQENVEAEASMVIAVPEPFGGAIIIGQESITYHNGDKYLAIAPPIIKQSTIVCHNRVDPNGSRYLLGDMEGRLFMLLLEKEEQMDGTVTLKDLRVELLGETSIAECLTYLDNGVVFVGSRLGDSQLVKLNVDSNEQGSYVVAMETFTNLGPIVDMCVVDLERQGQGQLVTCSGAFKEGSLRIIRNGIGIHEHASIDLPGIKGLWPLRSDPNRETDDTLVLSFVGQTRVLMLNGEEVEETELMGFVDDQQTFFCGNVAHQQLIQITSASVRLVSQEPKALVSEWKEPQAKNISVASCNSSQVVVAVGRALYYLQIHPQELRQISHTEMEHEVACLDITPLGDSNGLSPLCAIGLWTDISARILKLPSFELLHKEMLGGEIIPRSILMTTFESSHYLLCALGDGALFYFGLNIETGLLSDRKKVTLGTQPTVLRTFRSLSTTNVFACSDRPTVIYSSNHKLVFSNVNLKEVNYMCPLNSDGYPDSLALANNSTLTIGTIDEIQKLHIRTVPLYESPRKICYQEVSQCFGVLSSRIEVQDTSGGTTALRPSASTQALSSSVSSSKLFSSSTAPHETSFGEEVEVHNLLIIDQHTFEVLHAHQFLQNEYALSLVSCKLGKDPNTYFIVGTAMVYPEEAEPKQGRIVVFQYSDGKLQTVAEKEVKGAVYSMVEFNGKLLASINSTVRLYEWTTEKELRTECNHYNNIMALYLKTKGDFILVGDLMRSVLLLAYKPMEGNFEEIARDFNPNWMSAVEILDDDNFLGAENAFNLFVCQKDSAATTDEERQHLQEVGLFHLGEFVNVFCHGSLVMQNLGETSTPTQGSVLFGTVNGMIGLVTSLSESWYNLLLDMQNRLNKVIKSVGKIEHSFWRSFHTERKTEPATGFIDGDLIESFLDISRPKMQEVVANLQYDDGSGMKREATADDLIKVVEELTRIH
T2 sequence (P15170 whole entry): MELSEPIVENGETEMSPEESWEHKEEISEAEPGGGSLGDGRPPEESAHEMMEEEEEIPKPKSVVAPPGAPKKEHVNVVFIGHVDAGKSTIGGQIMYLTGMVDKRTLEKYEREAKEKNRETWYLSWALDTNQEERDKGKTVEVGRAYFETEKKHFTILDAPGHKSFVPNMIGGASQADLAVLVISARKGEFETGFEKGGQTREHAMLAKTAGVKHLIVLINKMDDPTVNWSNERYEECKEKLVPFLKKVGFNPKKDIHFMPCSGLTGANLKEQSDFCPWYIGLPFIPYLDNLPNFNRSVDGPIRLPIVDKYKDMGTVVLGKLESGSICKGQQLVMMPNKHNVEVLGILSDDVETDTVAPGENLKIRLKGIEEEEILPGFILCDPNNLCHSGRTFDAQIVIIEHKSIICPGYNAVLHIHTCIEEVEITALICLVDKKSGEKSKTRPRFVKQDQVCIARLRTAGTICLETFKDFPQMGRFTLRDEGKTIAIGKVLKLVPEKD
T2 sequence (Q96SW2 whole entry): as the sequence (Q96SW2 whole entry) above
T2 sequence (Q16531 whole entry partner): as the sequence (Q16531 whole entry partner) above

With `CC(C)c1nc(-c2ccc3c(c2)CN(C2CCC(=O)NC2=O)C3=O)cn1-c1ccccc1` (stereo not drawn) [Example 728, 3-(5-(2-isopropyl-1-phenyl-1H-imidazol-4-yl)-1-oxoisoindolin-2-yl)piperidine-2,6-dione], at CK1α (six hours), the “CK1α Ymin” value is listed as “C (C = 0-10% remaining)” and the DC50 was less than 0.025 µM. In the test on Z-138 cells, the “Ymin (%)” value is given as “E (>10-25% remaining)” and the EC50 was less than 0.01 µM. Besides, at GSPT1 [1], the DC50 is no less than 0.025 µM and the “GSPT1 Ymin” value was “F (F = >75-100% remaining)”.

For `Cc1cn(-c2ccccc2)c(-c2ccc3c(c2)CN(C2CCC(=O)NC2=O)C3=O)n1` (stereo not drawn) [Example 729, 3-(5-(4-methyl-1-phenyl-1H-imidazol-2-yl)-1-oxoisoindolin-2-yl)piperidine-2,6-dione], on CK1α (six hours), the “CK1α Ymin” value is on record as “C (C = 0-10% remaining)” and the DC50 was less than 0.025 µM. Moreover, in the test on Z-138 cells, the “Ymin (%)” value is recorded as “D (0-10% remaining)” and the EC50 was less than 0.01 µM. Further, at GSPT1 [1], the DC50 was less than 0.025 µM and the “GSPT1 Ymin” value is reported as “E (E = >25-75% remaining)”.

On to `Cn1nc(-c2ccc3c(c2)CN(C2CCC(=O)NC2=O)C3=O)nc1-c1ccc(Cl)cc1` (stereo not drawn) [Example 622, 3-(5-(5-(4-chlorophenyl)-1-methyl-1H-1,2,4-triazol-3-yl)-1-oxoisoindolin-2-yl)piperidine-2,6-dione], for which, at CK1α (six hours), the “CK1α Ymin” value is on record as “D (D = >10- 25% remaining)” and the half-maximal degradation concentration (DC50) is less than 0.025 µM. For the same compound, in the test with Z-138 cells, the “Ymin (%)” value is on record as “E (>10-25% remaining)” and the EC50 was in the range of 0.01 to 0.1 µM. In addition, on GSPT1 [1], the DC50 was no less than 0.025 µM and the “GSPT1 Ymin” value is “E (E = >25-75% remaining)”.

For the compound `Cn1ncc(-c2ccc3c(c2)CN(C2CCC(=O)NC2=O)C3=O)c1C1CCCC1` (stereo not drawn) [Example 692], on CK1α (six hours), the “CK1α Ymin” value is listed as “E (E = >25-75% remaining)” and the DC50 is no less than 0.025 µM. Moreover, in the test with Z-138 cells, the “Ymin (%)” value is “E (>10-25% remaining)” and the EC50 fell in the range of 0.1 to 0.5 µM. On GSPT1 [1], the DC50 is no less than 0.025 µM and the “GSPT1 Ymin” value is “F (F = >75-100% remaining)”.

As to `O=C1CCC(N2Cc3cc(-c4cc(-c5ccccc5)n(CC(F)(F)F)n4)ccc3C2=O)C(=O)N1` (stereo not drawn) [Example 710, 3-(1-oxo-5-(5-phenyl-1-(2,2,2-trifluoroethyl)-1H-pyrazol-3-yl)isoindolin-2-yl)piperidine-2,6-dione], on CK1α (six hours), the “CK1α Ymin” value is listed as “C (C = 0-10% remaining)” and the DC50 was less than 0.025 µM. Moreover, in the test with Z-138 cells, the “Ymin (%)” value is listed as “E (>10-25% remaining)” and the EC50 is less than 0.01 µM. At GSPT1 [1], the DC50 was less than 0.025 µM and the “GSPT1 Ymin” value is “F (F = >75-100% remaining)”.

With `Cn1nc(-c2ccc3c(c2)CN(C2CCC(=O)NC2=O)C3=O)cc1-c1ccc(Cl)cc1` (stereo not drawn) [Example 717, 3-(5-(5-(4-chlorophenyl)-1-methyl-1H-pyrazol-3-yl)-1-oxoisoindolin-2-yl)piperidine-2,6-dione], on CK1α (six hours), the “CK1α Ymin” value is reported as “D (D = >10- 25% remaining)” and the 50% degradation concentration (DC50) is less than 0.025 µM. In the test with Z-138 cells, the “Ymin (%)” value is given as “E (>10-25% remaining)” and the EC50 is 0.01 to 0.1 µM. Moreover, at GSPT1 [1], the DC50 is no less than 0.025 µM and the “GSPT1 Ymin” value was “F (F = >75-100% remaining)”.

As for `O=C1CCC(N2Cc3cc(-c4nccn4C4CCCCC4)ccc3C2=O)C(=O)N1` (stereo not drawn) [Example 48, 3-(5-(1-Cyclohexyl-1H-imidazol-2-yl)-1-oxoisoindolin-2-yl)piperidine-2,6-dione], at CK1α (six hours incubation), the “CK1α Ymin” value was “C (C = 0-10% remaining)” and the DC50 was less than 0.025 µM. In the test on Z-138 cells, the “Ymin (%)” value is “D (0-10% remaining)” and the EC50 is less than 0.01 µM. At GSPT1 [2] (six hours incubation), the DC50 is less than 0.025 µM and the “GSPT1 Ymin” value is “D (D = >10- 25% remaining)”.

Take `Cn1nc(-c2ccc3c(c2)CN(C2CCC(=O)NC2=O)C3=O)cc1C1CCC(F)(F)CC1` (stereo not drawn) [Example 546, 3-(5-(5-(4,4-difluorocyclohexyl)-1-methyl-1H-pyrazol-3-yl)-1-oxoisoindolin-2-yl)piperidine-2,6-dione]: on CK1α (six hours), the “CK1α Ymin” value is reported as “D (D = >10- 25% remaining)” and the DC50 is less than 0.025 µM. Further, in the test on Z-138 cells, the “Ymin (%)” value was “F (>25-50% remaining)” and the EC50 was in the range of 0.01 to 0.1 µM. On GSPT1 [2] (six hours), the DC50 was no less than 0.025 µM and the “GSPT1 Ymin” value is recorded as “F (F = >75-100% remaining)”.

Take `CN(C)Cc1ccc(-c2c(-c3ccc4c(c3)CN(C3CCC(=O)NC3=O)C4=O)cnn2C)cc1` (stereo not drawn) [Example 224]: on CK1α (six hours incubation), the “CK1α Ymin” value was “C (C = 0-10% remaining)” and the DC50 is less than 0.025 µM. Moreover, in the test on Z-138 cells, the “Ymin (%)” value is given as “E (>10-25% remaining)” and the EC50 is less than 0.01 µM. Moreover, on GSPT1 [2] (six hours incubation), the DC50 was no less than 0.025 µM and the “GSPT1 Ymin” value was “F (F = >75-100% remaining)”.

Regarding `O=C1CCC(N2Cc3cc(-c4nc(-c5ccccc5)n(C5CC5)n4)ccc3C2=O)C(=O)N1` (stereo not drawn) [Example 705, 3-(5-(1-cyclopropyl-5-phenyl-1H-1,2,4-triazol-3-yl)-1-oxoisoindolin-2-yl)piperidine-2,6-dione], on CK1α (six hours), the “CK1α Ymin” value is reported as “C (C = 0-10% remaining)” and the DC50 was less than 0.025 µM. For the same compound, in the test on Z-138 cells, the “Ymin (%)” value is given as “E (>10-25% remaining)” and the EC50 was in the range of 0.01 to 0.1 µM. Moreover, at GSPT1 [2] (six hours), the DC50 was less than 0.025 µM and the “GSPT1 Ymin” value is “F (F = >75-100% remaining)”.

`Cn1cc(-c2c(-c3ccc4c(c3)CN(C3CCC(=O)NC3=O)C4=O)nc(C3CC3)n2C)cn1` (stereo not drawn) [Example 46, 3-(5-(2-Cyclopropyl-1-methyl-5-(1-methyl-1H-pyrazol-4-yl)-1H-imidazol-4-yl)-1-oxoisoindolin-2-yl)piperidine-2,6-dione]: on CK1α (six hours incubation), the “CK1α Ymin” value is listed as “C (C = 0-10% remaining)” and the half-maximal degradation concentration (DC50) is less than 0.025 µM. In addition, in the test on Z-138 cells, the “Ymin (%)” value is given as “D (0-10% remaining)” and the EC50 was less than 0.01 µM. Further, on GSPT1 [2] (six hours incubation), the DC50 is no less than 0.025 µM and the “GSPT1 Ymin” value is listed as “F (F = >75-100% remaining)”.

For the compound `Cn1cnc(-c2ccc3c(c2)CN(C2CCC(=O)NC2=O)C3=O)c1C1CCCCC1` (stereo not drawn) [Example 594], on CK1α (six hours), the “CK1α Ymin” value is given as “C (C = 0-10% remaining)” and the DC50 was less than 0.025 µM. In the test on Z-138 cells, the “Ymin (%)” value was “D (0-10% remaining)” and the EC50 was less than 0.01 µM. Moreover, on GSPT1 [2] (six hours), the DC50 is less than 0.025 µM and the “GSPT1 Ymin” value is listed as “E (E = >25-75% remaining)”.

For `Cn1nc(-c2ccc3c(c2)CN(C2CCC(=O)NC2=O)C3=O)cc1-c1ccccc1` (stereo not drawn) [Example 36, 3-(5-(1-Methyl-5-phenyl-1H-pyrazol-3-yl)-1-oxoisoindolin-2-yl) piperidine-2,6-dione], at CK1α (six hours incubation), the “CK1α Ymin” value is reported as “D (D = >10- 25% remaining)” and the DC50 is less than 0.025 µM. Besides, in the test with Z-138 cells, the “Ymin (%)” value is “E (>10-25% remaining)” and the EC50 lay in the range of 0.01 to 0.1 µM. On GSPT1 [2] (six hours incubation), the 50% degradation concentration (DC50) was no less than 0.025 µM and the “GSPT1 Ymin” value is “F (F = >75-100% remaining)”.

Regarding `Cn1nc(-c2ccc3c(c2)CN(C2CCC(=O)NC2=O)C3=O)nc1C1CCC(F)(F)CC1` (stereo not drawn) [Example 606, 3-(5-(5-(4,4-difluorocyclohexyl)-1-methyl-1H-1,2,4-triazol-3-yl)-1-oxoisoindolin-2-yl)piperidine-2,6-dione], on CK1α (six hours), the “CK1α Ymin” value is “E (E = >25-75% remaining)” and the DC50 was no less than 0.025 µM. Moreover, in the test with Z-138 cells, the “Ymin (%)” value is on record as “F (>25-50% remaining)” and the EC50 was in the range of 0.01 to 0.1 µM. Moreover, at GSPT1 [2] (six hours), the DC50 was no less than 0.025 µM and the “GSPT1 Ymin” value is recorded as “F (F = >75-100% remaining)”.

For `COc1ccc(-c2c(-c3ccc4c(c3)CN(C3CCC(=O)NC3=O)C4=O)cnn2C(F)F)c(Cl)c1` (stereo not drawn) [Example 518, 3-(5-(5-(2-chloro-4-methoxyphenyl)-1-(difluoromethyl)-1H-pyrazol-4-yl)-1-oxoisoindolin-2-yl)piperidine-2,6-dione], at CK1α (six hours), the “CK1α Ymin” value is reported as “C (C = 0-10% remaining)” and the DC50 was less than 0.025 µM. Further, in the test on Z-138 cells, the “Ymin (%)” value is given as “D (0-10% remaining)” and the EC50 fell in the range of 0.01 to 0.1 µM. In addition, at GSPT1 [2] (six hours), the DC50 is less than 0.025 µM and the “GSPT1 Ymin” value is “F (F = >75-100% remaining)”.

As to `Cc1ccc(-c2c(-c3ccc4c(c3)CN(C3CCC(=O)NC3=O)C4=O)cnn2C)cc1` (stereo not drawn) [Example 72], at CK1α (six hours incubation), the “CK1α Ymin” value is reported as “D (D = >10- 25% remaining)” and the DC50 is less than 0.025 µM. In the test with Z-138 cells, the “Ymin (%)” value is given as “E (>10-25% remaining)” and the EC50 was 0.01 to 0.1 µM. On GSPT1 [2] (six hours incubation), the DC50 is no less than 0.025 µM and the “GSPT1 Ymin” value is listed as “F (F = >75-100% remaining)”.

Consider `Cn1c(-c2ccccc2)cnc1-c1ccc2c(c1)CN(C1CCC(=O)NC1=O)C2=O` (stereo not drawn) [Example 40, 3-(5-(1-Methyl-5-phenyl-1H-imidazol-2-yl)-1-oxoisoindolin-2-yl)piperidine-2,6-dione], for which, at CK1α (six hours incubation), the “CK1α Ymin” value is reported as “D (D = >10- 25% remaining)” and the DC50 was less than 0.025 µM. Besides, in the test with Z-138 cells, the “Ymin (%)” value is reported as “D (0-10% remaining)” and the EC50 was less than 0.01 µM. At GSPT1 [2] (six hours incubation), the DC50 was less than 0.025 µM and the “GSPT1 Ymin” value was “D (D = >10- 25% remaining)”.
